pEC50: −log10 of the molar value. Bounds are passed on as bounds.

These results are taken from patent US20220389007A1, “INHIBITORS OF HUMAN IMMUNODEFICIENCY VIRUS REPLICATION” (VIIV HEALTHCARE UK (No. 5) LIMITED, priority 2019, published 2022).

Data set [1] can be described thus: Compound cytotoxicity, XTT-based colorimetric assay. The data set is classed as cell-based. To be noted: human; uninfected MT2 cells, day 4, XTT assay. On the procedure:
Compound cytotoxicity and the corresponding CC50 values were determined using the same protocol as described in the antiviral assay except that uninfected cells were used. Cytotoxicity was assessed on day 4 in uninfected MT2 cells by using a XTT (2,3-bis[2-Methoxy-4-nitro-5-sulfophenyl]-2H-tetrazolium-5-carboxyanilide inner salt)-based colorimetric assay (Sigma-Aldrich, St Louis, Mo.).
(In general: Tetrazolium assays rely on reduction of a dye to a coloured formazan, in cell work by metabolically active cells.)

The test system of another data set is recombinant NL4-3 virus. Description: HIV cell culture assay (antiviral activity, luciferase readout). Type of data set: cell-based. To be noted: Human immunodeficiency virus 1, NL43, MT2, MT-2 cells infected for 4-5 days with recombinant NL4-3 virus carrying Renilla luciferase. On the procedure:
HIV cell culture assay—MT-2 cells, 293T cells and the proviral DNA clone of NL4-3 virus were obtained from the NIH AIDS Research and Reference Reagent Program. MT-2 cells were propagated in RPMI 1640 media supplemented with 10% heat inactivated fetal bovine serum (FBS), […]. The 293T cells were propagated in DMEM media supplemented with 10% heat inactivated FBS, […]. A recombinant NL4-3 proviral clone, in which a section of the nef gene was replaced with the Renilla luciferase gene, was used to make the reference virus used in these studies. The recombinant virus was prepared through transfection of the recombinant NL4-3 proviral clone into 293T cells using Transit-293 Transfection Reagent from Mirus Bio LLC (Madison, WI). Supernatent was harvested after 2-3 days and the amount of virus present was titered in MT-2 cells using luciferase enzyme activity as a marker by measuring luciferase enzyme activity. Luciferase was quantitated using the EnduRen Live Cell Substrate from Promega (Madison, Wis.). Antiviral activities of compounds toward the recombinant virus were quantified by measuring luciferase activity in MT-2 cells infected for 4-5 days with the recombinant virus in the presence of serial dilutions of the compound.
The 50% effective concentration (EC50) was calculated by using the exponential form of the median effect equation where (Fa)=1/[1+(ED50/drug conc.)m] (Johnson VA, Byington RT. Infectivity Assay. In Techniques in HIV Research. ed. Aldovini A, Walker BD. 71-76. New York: Stockton Press. 1990). The 50% inhibitory concentration (EC50) was calculated by using the exponential form of the median effect equation where percent inhibition=1/[1+(EC50/drug concentration)m], where m is a parameter that reflects the slope of the concentration-response curve.

In the case of `Cn1nc(NS(C)(=O)=O)c2c(Cl)ccc(-n3c([C@H](Cc4cc(F)cc(F)c4)NC(=O)Cn4nc(C(F)F)c5c4C(F)(F)[C@@H]4C[C@H]54)nc4nc(-c5nccc(C(F)F)n5)ccc4c3=O)c21` (atropisomer, axis not shown; (P)) [Example 6, N-((S)-1-((3P)-3-(4-chloro-1-methyl-3-(methylsulfonamido)-1H-indazol-7-yl)-7-(4-(difluoromethyl)pyrimidin-2-yl)-4-oxo-3,4-dihydropyrido[2,3-d]pyrimidin-2-yl)-2-(3,5-difluorophenyl)ethyl)-2-((3bS,4aR)-3-(difluoromethyl)-5,5-difluoro-3b,4,4a,5-tetrahydro-1H-cyclopropa[3,4]cyclopenta[1,2-c]pyrazol-1-yl)acetamide], the CC50 at 4 day in data set [1] is above 100 nM. For the same compound, the pEC50 with recombinant NL4-3 virus is 10.64.

Turning to `CC(C)Cn1nccc1-c1ccc2c(=O)n(-c3ccc(Cl)c4c(NS(C)(=O)=O)nn(C)c34)c([C@H](Cc3cc(F)cc(F)c3)NC(=O)Cn3nc(C(F)F)c4c3C(F)(F)[C@@H]3C[C@H]43)nc2n1` (atropisomer, axis not shown; (P)) [Example 69, N-((S)-1-((3P)-3-(4-chloro-1-methyl-3-(methylsulfonamido)-1H-indazol-7-yl)-7-(1-isobutyl-1H-pyrazol-5-yl)-4-oxo-3,4-dihydropyrido[2,3-d]pyrimidin-2-yl)-2-(3,5-difluorophenyl)ethyl)-2-((3bS,4aR)-3-(difluoromethyl)-5,5-difluoro-3b,4,4a,5-tetrahydro-1H-cyclopropa[3,4]cyclopenta[1,2-c]pyrazol-1-yl)acetamide], in data set [1], the CC50 at 4 day is above 100 nM. Also, the pEC50 with recombinant NL4-3 virus was 10.00.

`Cn1nc(NS(C)(=O)=O)c2c(Cl)ccc(-n3c([C@H](Cc4cc(F)cc(F)c4)NC(=O)Cn4nc(C(F)F)c5c4C(F)(F)[C@@H]4C[C@H]54)nc4nc(-c5ccncc5)ccc4c3=O)c21` (atropisomer, axis not shown; (P)) [Example 34, N-((S)-1-((3P)-3-(4-chloro-1-methyl-3-(methylsulfonamido)-1H-indazol-7-yl)-4-oxo-7-(pyridin-4-yl)-3,4-dihydropyrido[2,3-d]pyrimidin-2-yl)-2-(3,5-difluorophenyl)ethyl)-2-((3bS,4aR)-3-(difluoromethyl)-5,5-difluoro-3b,4,4a,5-tetrahydro-1H-cyclopropa[3,4]cyclopenta[1,2-c]pyrazol-1-yl)acetamide] registered a CC50 at 4 day in data set [1] above 100 nM. For the same compound, the negative logarithm of the EC50 (pEC50) with recombinant NL4-3 virus was 10.15.

`Cn1nc(NS(C)(=O)=O)c2c(Cl)ccc(-n3c([C@H](Cc4cc(F)cc(F)c4)NC(=O)Cn4nc(C(F)F)c5c4C(F)(F)[C@@H]4C[C@H]54)nc4nc(-c5nccnc5Cl)ccc4c3=O)c21` (atropisomer, axis not shown; (P)) [Example 61, N-((S)-1-((3P)-3-(4-chloro-1-methyl-3-(methylsulfonamido)-1H-indazol-7-yl)-7-(3-chloropyrazin-2-yl)-4-oxo-3,4-dihydropyrido[2,3-d]pyrimidin-2-yl)-2-(3,5-difluorophenyl)ethyl)-2-((3bS,4aR)-3-(difluoromethyl)-5,5-difluoro-3b,4,4a,5-tetrahydro-1H-cyclopropa[3,4]cyclopenta[1,2-c]pyrazol-1-yl)acetamide] displayed a CC50 at 4 day in data set [1] above 100 nM. For the same compound, the pEC50 in the data set with recombinant NL4-3 virus is 10.60.

As to `Cn1nc(NS(C)(=O)=O)c2c(Cl)ccc(-n3c([C@H](Cc4cc(F)cc(F)c4)NC(=O)Cn4nc(C(F)F)c5c4C(F)(F)[C@@H]4C[C@H]54)nc4nc(-c5cccc(F)n5)ccc4c3=O)c21` (atropisomer, axis not shown; (P)) [Example 30, N-((S)-1-((3P)-3-(4-chloro-1-methyl-3-(methylsulfonamido)-1H-indazol-7-yl)-7-(6-fluoropyridin-2-yl)-4-oxo-3,4-dihydropyrido[2,3-d]pyrimidin-2-yl)-2-(3,5-difluorophenyl)ethyl)-2-((3bS,4aR)-3-(difluoromethyl)-5,5-difluoro-3b,4,4a,5-tetrahydro-1H-cyclopropa[3,4]cyclopenta[1,2-c]pyrazol-1-yl)acetamide], the CC50 at 4 day in data set [1] is above 100 nM. Moreover, in the data set with recombinant NL4-3 virus, the pEC50 is 10.47.

Compound `Cc1cc(-c2ccc3c(=O)n(-c4ccc(Cl)c5c(NS(C)(=O)=O)nn(C)c45)c([C@H](Cc4cc(F)cc(F)c4)NC(=O)Cn4nc(C(F)F)c5c4C(F)(F)[C@@H]4C[C@H]54)nc3n2)n(CC(C)(F)F)n1` (single isomer, unassigned) [Example 97] yielded a CC50 at 4 day in data set [1] above 100 nM. Also, in the data set with recombinant NL4-3 virus, the pEC50 was 7.92.

For the compound `Cn1nc(NS(C)(=O)=O)c2c(Cl)ccc(-n3c([C@H](Cc4cc(F)cc(F)c4)NC(=O)Cn4nc(C(F)F)c5c4C(F)(F)[C@@H]4C[C@H]54)nc4nc(-c5cc(C(F)(F)F)n(CC(C)(F)F)n5)ccc4c3=O)c21` (single isomer, unassigned) [Example 94], in data set [1], the CC50 at 4 day was above 100 nM. For the same compound, in the data set on recombinant NL4-3 virus, the pEC50 was 9.80.

Compound `Cn1nc(NS(C)(=O)=O)c2c(Cl)ccc(-n3c([C@H](Cc4cc(F)cc(F)c4)NC(=O)Cn4nc(C(F)F)c5c4C(F)(F)[C@@H]4C[C@H]54)nc4nc(-c5ccccc5C(F)(F)F)ccc4c3=O)c21` (atropisomer, axis not shown; (P)) [Example 25, N-((S)-1-((3P)-3-(4-chloro-1-methyl-3-(methylsulfonamido)-1H-indazol-7-yl)-4-oxo-7-(2-(trifluoromethyl)phenyl)-3,4-dihydropyrido[2,3-d]pyrimidin-2-yl)-2-(3,5-difluorophenyl)ethyl)-2-((3bS,4aR)-3-(difluoromethyl)-5,5-difluoro-3b,4,4a,5-tetrahydro-1H-cyclopropa[3,4]cyclopenta[1,2-c]pyrazol-1-yl)acetamide] came in with a CC50 at 4 day in data set [1] above 100 nM. Besides, in the data set on recombinant NL4-3 virus, the pEC50 was 10.22.

`Cn1nc(NS(C)(=O)=O)c2c(Cl)ccc(-n3c([C@H](Cc4cc(F)cc(F)c4)NC(=O)Cn4nc(C(F)F)c5c4C(F)(F)[C@@H]4C[C@H]54)nc4nc(-c5ncccn5)ccc4c3=O)c21` (atropisomer, axis not shown; (P)) [Example 47, N-((S)-1-((3P)-3-(4-chloro-1-methyl-3-(methylsulfonamido)-1H-indazol-7-yl)-4-oxo-7-(pyrimidin-2-yl)-3,4-dihydropyrido[2,3-d]pyrimidin-2-yl)-2-(3,5-difluorophenyl)ethyl)-2-((3bS,4aR)-3-(difluoromethyl)-5,5-difluoro-3b,4,4a,5-tetrahydro-1H-cyclopropa[3,4]cyclopenta[1,2-c]pyrazol-1-yl)acetamide] returned a CC50 at 4 day in data set [1] above 100 nM. The pEC50 with recombinant NL4-3 virus was 10.17.

As for `Cc1cc(-c2ccc3c(=O)n(-c4ccc(Cl)c5c(NS(C)(=O)=O)nn(C)c45)c([C@H](Cc4cc(F)cc(F)c4)NC(=O)Cn4nc(C(F)F)c5c4C(F)(F)[C@@H]4C[C@H]54)nc3n2)nn1CC(C)(F)F` (single isomer, unassigned) [Example 96], the CC50 at 4 day in data set [1] is above 100 nM. Also, the pEC50 in the data set with recombinant NL4-3 virus is 10.36.

As for `Cn1nc(NS(C)(=O)=O)c2c(Cl)ccc(-n3c([C@H](Cc4cc(F)cc(F)c4)NC(=O)Cn4nc(C(F)F)c5c4C(F)(F)[C@@H]4C[C@H]54)nc4nc(-c5cc(C(F)(F)F)ccn5)ccc4c3=O)c21` (atropisomer, axis not shown; (P)) [Example 16, N-((S)-1-((3P)-3-(4-chloro-1-methyl-3-(methylsulfonamido)-1H-indazol-7-yl)-4-oxo-7-(4-(trifluoromethyl)pyridin-2-yl)-3,4-dihydropyrido[2,3-d]pyrimidin-2-yl)-2-(3,5-difluorophenyl)ethyl)-2-((3bS,4aR)-3-(difluoromethyl)-5,5-difluoro-3b,4,4a,5-tetrahydro-1H-cyclopropa[3,4]cyclopenta[1,2-c]pyrazol-1-yl)acetamide], in data set [1], the CC50 at 4 day is above 100 nM. Besides, the pEC50 with recombinant NL4-3 virus is 10.28.

Consider `Cn1nc(NS(C)(=O)=O)c2c(Cl)ccc(-n3c([C@H](Cc4cc(F)cc(F)c4)NC(=O)Cn4nc(C(F)F)c5c4C(F)(F)[C@@H]4C[C@H]54)nc4nc(-n5cc(C(F)(F)F)cn5)ccc4c3=O)c21` (atropisomer, axis not shown; (P)) [Example 66, N-((S)-1-((3P)-3-(4-chloro-1-methyl-3-(methylsulfonamido)-1H-indazol-7-yl)-4-oxo-7-(4-(trifluoromethyl)-1H-pyrazol-1-yl)-3,4-dihydropyrido[2,3-d]pyrimidin-2-yl)-2-(3,5-difluorophenyl)ethyl)-2-((3bS,4aR)-3-(difluoromethyl)-5,5-difluoro-3b,4,4a,5-tetrahydro-1H-cyclopropa[3,4]cyclopenta[1,2-c]pyrazol-1-yl)acetamide], for which the CC50 at 4 day in data set [1] is above 100 nM. In addition, the pEC50 with recombinant NL4-3 virus is 10.15.

Broadly, the CC50 is the concentration giving 50% cytotoxicity. Read a low CC50 as greater toxicity to the cells. The term pEC50 denotes the negative decadic logarithm of the EC50, by convention in mol/L.
